“Also recorded” adds a separate entry of the source. Structures can show the parent of a compound that is named as a salt. Where two headings read alike, the source gives them in different places.
How the values were obtained:
human NET = target: T1, human NET (Homo sapiens, UniProt P23975); assay: Human norepinephrine transporter assay, [3H]nisoxetine binding to cell membrane homogenates
T1 construct: expressed in transfected cells
Procedure: Human Norepinephrine Transporter Assay
Nonspecific binding was determined in the presence of 1 μM desipramine. Following incubation, the samples were filtered rapidly under vacuum through glass fiber filters (GF/B, Packard) presoaked with 0.3% PEI, and rinsed several times with ice-cold 50 mM Tris-HCl using a 96-sample cell harvester (Unifilter, Packard). The filters were dried then counted for radioactivity in a scintillation counter (Topcount, Packard) using a scintillation cocktail (Microscint 0, Packard). The results were expressed as a percent inhibition of the control radioligand specific binding. The standard reference compound was protriptyline, which was tested in each experiment at several concentrations to obtain a competition curve from which its IC50 is calculated. Typical assay volumes were 250 μL in 96-well plate and compounds are solubilized in water.

[1] = target: T2, Nitric oxide synthase (endothelial, human recombinant) eNOS (Homo sapiens, UniProt P29474); assay: eNOS (human) enzyme assay, [3H]-L-arginine to L-citrulline conversion; type: biochemical
T2 construct: purchased Axxora LLC ALX-201-070

[2] = target: T3, Nitric oxide synthase (neuronal, human recombinant) nNOS (Homo sapiens, UniProt P29475); assay: nNOS (human) enzyme assay, [3H]-L-arginine to L-citrulline conversion; type: biochemical
T3 construct: purchased Axxora LLC ALX-201-068

[3] = system: L5/L6 spinal nerve ligation model of neuropathic pain (Chung model); assay: Chung L5/L6 spinal nerve ligation model, thermal hyperalgesia; type: in vivo, rat; settings: rats, 30 mg/kg i.p., one dose
Procedure: (§1) The L5/L6 spinal nerve was surgically ligated and animals allowed to recover for a period of 7-10 days. During this period animals develop neuropathic pain. The reduction of paw withdrawal latency after an infrared thermal stimulus (post-SNL) was measured following the induction period for comparison with pre-surgery baseline levels (BL). Following drug administration, thermal hyperalgesia was measured at various time points.
(§2) (a) Chung Model of Injury-induced Neuropathic-like Pain: The experimental designs for the Chung Spinal Nerve Ligation SNL Model assay for neuropathic pain are depicted in FIGS. 1a and 1b. Nerve ligation injury was performed according to the method described by Kim and Chung (Kim and Chung, Pain 50:355-363, 1992). This technique produces signs of neuropathic dysesthesias, including tactile allodynia, thermal hyperalgesia, and guarding of the affected paw. Rats were anesthetized with halothane, and the vertebrae over the L4 to S2 region were exposed. The L5 and L6 spinal nerves were exposed, carefully isolated, and tightly ligated with 4-0 silk sutures distal to the DRG. After ensuring homeostatic stability, the wounds were sutured, and the animals allowed to recover in individual cages. Sham-operated rats were prepared in an identical fashion except that the L5/L6 spinal nerves were not ligated. […]

[4] = system: L5/L6 spinal nerve ligation model of neuropathic pain (Chung model); assay: Chung L5/L6 spinal nerve ligation model, tactile allodynia; type: in vivo, rat; settings: rats, 30 mg/kg i.p., one dose
Procedure: as §1, with “tactile thresholds” for “paw withdrawal latency after an infrared thermal stimulus”, “tactile allodynia” for “thermal hyperalgesia”, “points with calibrated von-Frey filaments.” for “points.”
as §2

migraine [5] = settings: migraine patients, single i.v. administration; cited from earlier work
migraine [6] = settings: open pilot study; cited from earlier work
[7] = Table 2, compounds tested as hydrochloride salts, read-out: IC50, Human NET activity
[8] = Table 2, compounds tested as hydrochloride salts
[9] = IC50, Human NET activity, Table 2, compounds tested as hydrochloride salts

T2 sequence (P29474 whole entry): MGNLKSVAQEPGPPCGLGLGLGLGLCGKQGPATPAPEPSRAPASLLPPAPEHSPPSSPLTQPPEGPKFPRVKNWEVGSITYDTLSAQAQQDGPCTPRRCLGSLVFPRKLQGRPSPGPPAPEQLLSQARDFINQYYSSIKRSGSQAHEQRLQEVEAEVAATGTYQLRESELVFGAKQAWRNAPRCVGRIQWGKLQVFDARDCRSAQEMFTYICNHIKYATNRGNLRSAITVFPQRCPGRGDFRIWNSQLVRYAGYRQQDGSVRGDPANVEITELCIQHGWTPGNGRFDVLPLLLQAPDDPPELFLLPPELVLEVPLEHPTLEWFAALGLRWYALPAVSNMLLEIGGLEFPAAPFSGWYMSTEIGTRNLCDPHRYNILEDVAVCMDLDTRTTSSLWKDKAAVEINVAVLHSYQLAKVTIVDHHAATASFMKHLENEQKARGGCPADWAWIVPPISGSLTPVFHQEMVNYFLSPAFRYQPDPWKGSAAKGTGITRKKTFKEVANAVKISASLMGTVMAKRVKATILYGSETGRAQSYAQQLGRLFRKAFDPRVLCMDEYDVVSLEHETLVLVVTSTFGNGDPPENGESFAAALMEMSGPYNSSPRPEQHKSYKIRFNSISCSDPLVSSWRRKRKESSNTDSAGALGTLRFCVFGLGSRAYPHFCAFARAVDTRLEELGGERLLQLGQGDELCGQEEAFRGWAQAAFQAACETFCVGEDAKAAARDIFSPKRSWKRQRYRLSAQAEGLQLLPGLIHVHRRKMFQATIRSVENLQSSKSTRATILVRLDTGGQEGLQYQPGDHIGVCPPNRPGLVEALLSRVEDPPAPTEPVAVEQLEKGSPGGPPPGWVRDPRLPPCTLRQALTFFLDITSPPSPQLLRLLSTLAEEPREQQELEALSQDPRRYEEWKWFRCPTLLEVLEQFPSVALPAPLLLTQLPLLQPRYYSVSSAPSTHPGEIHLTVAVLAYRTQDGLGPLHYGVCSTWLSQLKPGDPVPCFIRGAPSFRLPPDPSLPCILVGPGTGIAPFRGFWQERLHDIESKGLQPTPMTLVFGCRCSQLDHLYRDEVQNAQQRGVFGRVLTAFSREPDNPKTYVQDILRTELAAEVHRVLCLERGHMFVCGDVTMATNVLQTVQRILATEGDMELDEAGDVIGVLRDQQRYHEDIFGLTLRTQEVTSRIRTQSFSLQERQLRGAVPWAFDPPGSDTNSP
T1 sequence (P23975 whole entry): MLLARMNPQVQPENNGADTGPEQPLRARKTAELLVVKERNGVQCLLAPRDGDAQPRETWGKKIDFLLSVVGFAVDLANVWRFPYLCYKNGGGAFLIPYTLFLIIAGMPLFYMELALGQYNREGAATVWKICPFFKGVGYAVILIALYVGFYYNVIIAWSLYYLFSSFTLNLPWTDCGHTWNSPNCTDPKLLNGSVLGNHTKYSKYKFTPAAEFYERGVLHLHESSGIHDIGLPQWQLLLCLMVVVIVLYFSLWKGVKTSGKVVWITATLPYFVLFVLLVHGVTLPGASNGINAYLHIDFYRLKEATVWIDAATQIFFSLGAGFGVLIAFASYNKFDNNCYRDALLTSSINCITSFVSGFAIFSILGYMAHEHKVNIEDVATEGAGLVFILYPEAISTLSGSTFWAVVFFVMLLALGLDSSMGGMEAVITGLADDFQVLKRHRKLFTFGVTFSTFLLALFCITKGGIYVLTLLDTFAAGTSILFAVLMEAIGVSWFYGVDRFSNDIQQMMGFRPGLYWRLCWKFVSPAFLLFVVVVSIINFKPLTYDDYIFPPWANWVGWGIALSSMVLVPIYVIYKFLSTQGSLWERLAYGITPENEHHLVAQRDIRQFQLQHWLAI
T3 sequence (P29475 whole entry): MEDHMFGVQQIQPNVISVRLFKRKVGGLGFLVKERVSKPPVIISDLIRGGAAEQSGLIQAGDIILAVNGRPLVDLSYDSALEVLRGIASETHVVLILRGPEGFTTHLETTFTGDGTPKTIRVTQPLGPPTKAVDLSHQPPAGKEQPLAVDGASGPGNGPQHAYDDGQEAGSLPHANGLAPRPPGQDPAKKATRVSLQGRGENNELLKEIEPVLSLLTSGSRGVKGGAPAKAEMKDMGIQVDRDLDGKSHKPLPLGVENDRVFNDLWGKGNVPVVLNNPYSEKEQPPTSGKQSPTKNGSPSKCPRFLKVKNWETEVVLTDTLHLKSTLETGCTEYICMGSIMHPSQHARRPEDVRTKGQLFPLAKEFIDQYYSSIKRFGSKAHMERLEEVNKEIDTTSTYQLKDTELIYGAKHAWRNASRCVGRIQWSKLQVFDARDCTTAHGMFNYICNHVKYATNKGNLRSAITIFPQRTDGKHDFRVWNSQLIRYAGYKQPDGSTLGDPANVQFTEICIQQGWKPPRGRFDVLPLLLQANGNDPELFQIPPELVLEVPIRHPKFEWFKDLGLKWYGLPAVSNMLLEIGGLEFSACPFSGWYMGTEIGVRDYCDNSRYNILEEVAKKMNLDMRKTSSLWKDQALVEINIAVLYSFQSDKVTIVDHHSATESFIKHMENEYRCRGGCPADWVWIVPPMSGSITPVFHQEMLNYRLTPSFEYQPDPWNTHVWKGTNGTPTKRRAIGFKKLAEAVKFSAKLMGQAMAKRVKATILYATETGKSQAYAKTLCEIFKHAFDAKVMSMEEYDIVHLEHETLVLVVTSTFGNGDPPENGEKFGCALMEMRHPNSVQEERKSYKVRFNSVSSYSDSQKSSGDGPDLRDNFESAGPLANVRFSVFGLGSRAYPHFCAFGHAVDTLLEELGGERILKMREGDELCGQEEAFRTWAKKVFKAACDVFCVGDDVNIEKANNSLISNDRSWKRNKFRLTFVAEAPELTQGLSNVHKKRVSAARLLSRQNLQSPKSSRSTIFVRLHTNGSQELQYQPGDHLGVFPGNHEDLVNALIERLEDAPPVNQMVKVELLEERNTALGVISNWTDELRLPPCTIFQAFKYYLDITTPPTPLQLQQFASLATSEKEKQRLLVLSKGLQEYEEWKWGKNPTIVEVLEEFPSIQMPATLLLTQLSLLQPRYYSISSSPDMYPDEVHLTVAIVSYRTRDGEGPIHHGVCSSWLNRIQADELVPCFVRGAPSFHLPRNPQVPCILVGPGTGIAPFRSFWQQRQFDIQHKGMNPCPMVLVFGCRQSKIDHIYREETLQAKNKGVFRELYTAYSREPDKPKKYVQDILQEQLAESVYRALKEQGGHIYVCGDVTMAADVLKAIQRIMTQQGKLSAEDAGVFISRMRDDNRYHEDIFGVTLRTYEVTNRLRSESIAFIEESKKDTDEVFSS

Row | IC50 (human NET; [7]) [nM] | SMILES | IC50 [1, 8] [nM] | IC50 [2, 8] [nM] | also measured
1 | 520 | CNC1CCC(c2c[nH]c3ccc(NC(=N)c4cccs4)cc23)CC1 (mixture of isomers) [Compound 1, N-(3-(4-(methylamino)cyclohexyl)-1H-indol-5-yl)thiophene-2-carboximidamide] | – | – | –
2 | 270 | CCNC1CCC(c2c[nH]c3ccc(NC(=N)c4cccs4)cc23)CC1 (mixture of isomers) [Compound 5, N-(3-(4-(ethylamino)cyclohexyl)-1H-indol-5-yl)thiophene-2-carboximidamide] | – | – | –
3 | – | CCNC1CCC(c2c[nH]c3ccc(NC(=N)c4cccs4)cc23)C1 (mixture of isomers) [Compound 11, N-(3-(3-(ethylamino)cyclopentyl)-1H-indol-5-yl)thiophene-2-carboximidamide] | – | – | IC50 ([1]; Table 3): 14300 nM; IC50 ([2]; Table 3): 257 nM
4 | – | CN(C)C1CC=C(c2c[nH]c3ccc(NC(=N)c4cccs4)cc23)CC1 (racemic) [(±)-2, N-(3-(4-(dimethylamino)cyclohex-1-enyl)-1H-indol-5-yl)thiophene-2-carboximidamide] | 51400 | 3000 | IC50 (human NET; [9]): 550 nM
5 | 1300 | CNC1CC=C(c2c[nH]c3ccc(NC(=N)c4cccs4)cc23)CC1 (racemic) [(±)-3, N-(3-(4-(methylamino)cyclohex-1-enyl)-1H-indol-5-yl)thiophene-2-carboximidamide] | 32000 | 1730 | –
6 | 280 | CCNC1CC=C(c2c[nH]c3ccc(NC(=N)c4cccs4)cc23)CC1 (racemic) [(±)-6, N-(3-(4-(ethylamino)cyclohex-1-enyl)-1H-indol-5-yl)thiophene-2-carboximidamide] | 40300 | 1420 | –
7 | – | CNC1CCCC(c2c[nH]c3ccc(NC(=N)c4cccs4)cc23)C1 (racemic) [(±)-8, N-(3-(3-(methylamino)cyclohexyl)-1H-indol-5-yl)thiophene-2-carboximidamide] | – | – | IC50 ([1]; Table 3): 7760 nM; IC50 (human NET; IC50, Human NET, Table 3): 880 nM
8 | – | CCNC1CCCC(c2c[nH]c3ccc(NC(=N)c4cccs4)cc23)C1 (racemic) [(±)-9, N-(3-(3-(ethylamino)cyclohexyl)-1H-indol-5-yl)thiophene-2-carboximidamide] | – | – | IC50 (human NET; IC50, Human NET, Table 3): 760 nM
9 | – | CCNC1CCCC(c2c[nH]c3ccc(NC(=N)c4cccs4)cc23)C1 (racemic) [(±)-10, N-(3-(3-(ethylamino)cyclohexyl)-1H-indol-5-yl)thiophene-2-carboximidamide] | – | – | IC50 (human NET; IC50, Human NET, Table 3): 1700 nM
10 | – | CNC1CCCC(c2c[nH]c3ccc(NC(=N)c4cccs4)cc23)C1 (single isomer, unassigned) [(±)-7, N-(3-(-3-(Methylamino)cyclohexyl)-1H-indol-5-yl)thiophene-2-carboximidamide] | – | – | IC50 ([1]; Table 3): 77600 nM; IC50 (human NET; IC50, Human NET, Table 3): 2500 nM
11 | – | CN(C)C1CC=C(c2c[nH]c3ccc(NC(=N)c4cccs4)cc23)CC1 (single isomer, unassigned) [Compound 2a, N-(3-(4-(Dimethylamino)cyclohex-1-enyl)-1H-indol-5-yl)thiophene-2-carboximidamide] | 47100 | 865 | IC50 (human NET; [9]): 1100 nM
12 | – | CN(C)C1CC=C(c2c[nH]c3ccc(NC(=N)c4cccs4)cc23)CC1 (single isomer, unassigned) [Compound 2b, N-(3-(4-(Dimethylamino)cyclohex-1-enyl)-1H-indol-5-yl)thiophene-2-carboximidamide] | 96000 | 839 | IC50 (human NET; [9]): 960 nM
13 | 1100 | CNC1CC=C(c2c[nH]c3ccc(NC(=N)c4cccs4)cc23)CC1 (single isomer, unassigned) [Compound 3a, N-(3-(4-(Methylamino)cyclohex-1-enyl)-1H-indol-5-yl)thiophene-2-carboximidamide] | 53400 | 439 | –
14 | 1100 | CNC1CC=C(c2c[nH]c3ccc(NC(=N)c4cccs4)cc23)CC1 (single isomer, unassigned) [Compound 3b, N-(3-(4-(Methylamino)cyclohex-1-enyl)-1H-indol-5-yl)thiophene-2-carboximidamide] | 40900 | 537 | –
15 | 2800 | CCN[C@H]1CC[C@H](c2c[nH]c3ccc(NC(=N)c4cccs4)cc32)CC1 (single isomer, unassigned) [Compound 5a, trans-N-(3-(4-(Ethylamino)cyclohexyl)-1H-indol-5-yl)thiophene-2-carboximidamide] | – | – | –
16 | 380 | CCN[C@H]1CC[C@@H](c2c[nH]c3ccc(NC(=N)c4cccs4)cc32)CC1 (single isomer, unassigned) [Compound 5b, cis-N-(3-(4-(Ethylamino)cyclohexyl)-1H-indol-5-yl) thiophene-2-carboximidamide] | – | – | –
17 | – | CNC1CCCC(c2c[nH]c3ccc(NC(=N)c4cccs4)cc23)C1 (single isomer, unassigned) [Compound 7a, N-(3-(3-(Methylamino)cyclohexyl)-1H-indol-5-yl)thiophene-2-carboximidamide dihydrochloride [(+)-cis-enantiomer]] | – | – | IC50 ([1]; Table 3): 49300 nM; reversal of thermal hyperalgesia (antihyperalgesic effect) [3]: clear antihyperalgesic effect; reversal of thermal hyperalgesia (antihyperalgesic effect) ([3]; listed as (+)−7a): reversal of thermal hyperalgesia; reversal of tactile allodynia (antiallodynic effect) [4]: reversal of tactile hyperthesia; also recorded: pronounced antiallodynic effect; reversal of tactile allodynia (antiallodynic effect) ([4]; listed as (+)−7a): reversal of tactile allodynia; IC50 (human NET; IC50, Human NET, Table 3): 1000 nM
18 | – | CNC1CCCC(c2c[nH]c3ccc(NC(=N)c4cccs4)cc23)C1 (single isomer, unassigned) [Compound 7b, N-(3-(3-(Methylamino)cyclohexyl)-1H-indol-5-yl)thiophene-2-carboximidamide dihydrochloride [(−)-cis-enantiomer]] | – | – | IC50 ([1]; Table 3): 75000 nM; IC50 (human NET; IC50, Human NET, Table 3): 5200 nM
19 | 400 | CN[C@H]1CC[C@@H](c2c[nH]c3ccc(NC(=N)c4cccs4)cc32)CC1 [Compound 1a, N-(3-(4-(Methylamino)cyclohexyl)-1H-indol-5-yl)thiophene-2-carboximidamide] | – | – | –
20 | 2000 | CN[C@H]1CC[C@H](c2c[nH]c3ccc(NC(=N)c4cccs4)cc32)CC1 [Compound 1b, N-(3-(4-(Methylamino)cyclohexyl)-1H-indol-5-yl)thiophene-2-carboximidamide] | – | – | –
21 | – | CN(C)C1CCC(c2c[nH]c3ccc(NC(=N)c4cccs4)cc23)CC1 (stereo not drawn) [Compound 4, N-(3-(4-(dimethylamino)cyclohexyl)-1H-indol-5-yl)thiophene-2-carboximidamide] | 31800 | 3440 | IC50 (human NET; [9]): 190 nM
22 | – | CNC(=N)NCCC[C@H](N)C(=O)O [L-NMMA, N^G-monomethyl-L-arginine] | – | – | response rate (migraine [5]): 67%
23 | – | C/C1=C2/[N-][C@H]([C@H](CC(N)=O)[C@@]2(C)CCC(=O)NC[C@@H](C)OP(=O)([O-])O[C@H]2[C@@H](O)[C@@H](n3cnc4cc(C)c(C)cc43)O[C@@H]2CO)[C@]2(C)N=C(/C(C)=C3N=C(/C=C4N=C1[C@@H](CCC(N)=O)C\4(C)C)[C@@H](CCC(N)=O)[C@]\3(C)CC(N)=O)[C@@H](CCC(N)=O)[C@]2(C)CC(N)=O.[Co+3].[OH-] [hydroxycobalamin] | – | – | patients with a reduction in the frequency of migraine attack of 50% (migraine [6]): 53%

From patent US20090131503A1, “3,5 - SUBSTITUTED INDOLE COMPOUNDS HAVING NOS AND NOREPINEPHRINE REUPTAKE INHIBITORY ACTIVITY” (priority 2007, published 2009)
